Test results from ChEMBL document CHEMBL4028801, “A multifactorial approach to hepatobiliary transporter assessment enables improved therapeutic compound development” (Toxicol Sci, 2013).
Structures can show the parent of a compound that is named as a salt.

Columns and labels:
[1] = target: T1, ATP-binding cassette sub-family C member 4 (Homo sapiens, UniProt O15439); assay: Inhibition of human MRP4 overexpressed in Sf9 cell membrane vesicles assessed as uptake of [3H]-estradiol-17beta-D-glucuronide in presence of ATP and GSH measured after 20 mins by membrane vesicle transport assay; type: ADME, cell-based
T1 sequence (O15439 whole entry): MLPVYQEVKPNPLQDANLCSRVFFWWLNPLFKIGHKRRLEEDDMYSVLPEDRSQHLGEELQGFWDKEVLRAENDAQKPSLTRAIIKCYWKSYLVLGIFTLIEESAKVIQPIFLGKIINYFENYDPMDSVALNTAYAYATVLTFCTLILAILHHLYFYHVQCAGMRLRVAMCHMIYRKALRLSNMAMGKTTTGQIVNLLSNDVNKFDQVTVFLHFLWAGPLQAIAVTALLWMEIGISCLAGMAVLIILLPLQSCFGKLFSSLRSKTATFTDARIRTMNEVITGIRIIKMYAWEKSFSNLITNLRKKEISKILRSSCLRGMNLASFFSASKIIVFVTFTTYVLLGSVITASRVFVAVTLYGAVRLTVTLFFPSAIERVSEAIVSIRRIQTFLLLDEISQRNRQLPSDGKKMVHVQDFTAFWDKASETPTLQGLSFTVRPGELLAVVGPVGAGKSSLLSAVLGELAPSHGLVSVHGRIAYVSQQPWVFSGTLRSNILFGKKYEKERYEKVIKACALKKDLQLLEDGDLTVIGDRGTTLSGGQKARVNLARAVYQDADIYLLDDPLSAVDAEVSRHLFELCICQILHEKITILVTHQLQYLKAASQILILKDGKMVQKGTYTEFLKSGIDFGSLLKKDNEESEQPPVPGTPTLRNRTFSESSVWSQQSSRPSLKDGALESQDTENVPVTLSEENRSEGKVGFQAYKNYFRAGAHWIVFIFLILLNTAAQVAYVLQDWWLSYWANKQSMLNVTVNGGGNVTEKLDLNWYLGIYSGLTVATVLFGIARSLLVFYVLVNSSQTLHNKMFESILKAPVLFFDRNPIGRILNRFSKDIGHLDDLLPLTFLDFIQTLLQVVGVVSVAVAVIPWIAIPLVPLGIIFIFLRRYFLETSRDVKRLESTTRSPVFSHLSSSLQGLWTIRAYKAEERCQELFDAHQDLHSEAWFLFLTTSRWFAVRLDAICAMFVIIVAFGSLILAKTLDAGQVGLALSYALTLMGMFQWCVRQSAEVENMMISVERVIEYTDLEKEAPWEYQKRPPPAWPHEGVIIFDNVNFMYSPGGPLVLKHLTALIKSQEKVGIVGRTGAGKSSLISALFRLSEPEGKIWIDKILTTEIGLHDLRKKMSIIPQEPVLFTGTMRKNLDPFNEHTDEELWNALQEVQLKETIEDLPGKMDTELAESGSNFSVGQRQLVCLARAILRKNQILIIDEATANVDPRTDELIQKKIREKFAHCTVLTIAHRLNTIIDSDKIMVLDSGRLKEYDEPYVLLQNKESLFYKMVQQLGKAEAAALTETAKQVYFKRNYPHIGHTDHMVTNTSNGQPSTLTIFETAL

[2] = target: ATP-binding cassette sub-family C member 3 (Homo sapiens, UniProt O15438); assay: Inhibition of human MRP3 overexpressed in Sf9 insect cell membrane vesicles assessed as uptake of [3H]-estradiol-17beta-D-glucuronide in presence of ATP and GSH measured after 10 mins by membrane vesicle transport assay; type: ADME, cell-based
ATP-binding cassette sub-family C member 3, sequence (O15438 whole entry): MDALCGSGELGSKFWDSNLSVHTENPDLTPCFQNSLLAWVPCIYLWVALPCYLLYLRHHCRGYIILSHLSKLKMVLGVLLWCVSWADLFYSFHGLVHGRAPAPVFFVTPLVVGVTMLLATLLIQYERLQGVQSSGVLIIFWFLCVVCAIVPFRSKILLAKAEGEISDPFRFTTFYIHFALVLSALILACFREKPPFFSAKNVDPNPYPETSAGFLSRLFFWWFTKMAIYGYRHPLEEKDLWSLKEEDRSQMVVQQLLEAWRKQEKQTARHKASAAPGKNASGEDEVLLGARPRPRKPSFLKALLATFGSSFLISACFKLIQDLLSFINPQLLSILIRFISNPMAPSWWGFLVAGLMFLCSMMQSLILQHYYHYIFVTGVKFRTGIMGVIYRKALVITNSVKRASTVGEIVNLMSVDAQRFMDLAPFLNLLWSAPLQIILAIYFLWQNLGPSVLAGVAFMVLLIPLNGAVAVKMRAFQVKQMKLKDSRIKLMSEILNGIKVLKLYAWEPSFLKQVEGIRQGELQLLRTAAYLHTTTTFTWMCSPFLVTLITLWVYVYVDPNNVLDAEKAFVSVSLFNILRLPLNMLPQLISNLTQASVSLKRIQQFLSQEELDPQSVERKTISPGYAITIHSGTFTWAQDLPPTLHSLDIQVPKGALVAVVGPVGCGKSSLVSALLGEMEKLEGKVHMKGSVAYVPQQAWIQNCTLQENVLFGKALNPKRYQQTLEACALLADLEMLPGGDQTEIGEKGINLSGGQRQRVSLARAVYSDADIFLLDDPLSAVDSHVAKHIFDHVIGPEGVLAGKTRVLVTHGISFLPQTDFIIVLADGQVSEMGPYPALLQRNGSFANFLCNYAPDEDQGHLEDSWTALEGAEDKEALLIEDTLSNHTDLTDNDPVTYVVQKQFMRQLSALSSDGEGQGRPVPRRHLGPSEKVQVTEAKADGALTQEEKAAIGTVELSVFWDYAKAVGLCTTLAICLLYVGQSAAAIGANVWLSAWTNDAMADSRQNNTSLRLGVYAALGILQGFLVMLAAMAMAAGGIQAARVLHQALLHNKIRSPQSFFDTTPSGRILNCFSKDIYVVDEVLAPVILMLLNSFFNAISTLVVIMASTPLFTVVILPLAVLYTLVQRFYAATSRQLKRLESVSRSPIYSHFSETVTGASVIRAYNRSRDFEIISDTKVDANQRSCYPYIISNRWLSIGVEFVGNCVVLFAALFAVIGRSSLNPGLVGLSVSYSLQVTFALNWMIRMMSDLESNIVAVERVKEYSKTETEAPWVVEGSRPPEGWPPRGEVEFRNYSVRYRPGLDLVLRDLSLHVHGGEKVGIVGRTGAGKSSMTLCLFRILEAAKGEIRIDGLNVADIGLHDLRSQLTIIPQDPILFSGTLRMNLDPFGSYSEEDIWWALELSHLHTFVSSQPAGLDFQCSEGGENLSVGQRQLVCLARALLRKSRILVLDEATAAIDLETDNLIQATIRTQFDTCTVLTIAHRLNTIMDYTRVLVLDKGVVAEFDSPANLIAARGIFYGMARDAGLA

Bile salt export pump = Bile salt export pump (Homo sapiens, UniProt O95342); assay: Inhibition of human BSEP overexpressed in Sf9 cell membrane vesicles assessed as uptake of [3H]-taurocholate in presence of ATP measured after 15 to 20 mins by membrane vesicle transport assay; type: ADME, cell-based
Bile salt export pump, sequence (O95342 whole entry): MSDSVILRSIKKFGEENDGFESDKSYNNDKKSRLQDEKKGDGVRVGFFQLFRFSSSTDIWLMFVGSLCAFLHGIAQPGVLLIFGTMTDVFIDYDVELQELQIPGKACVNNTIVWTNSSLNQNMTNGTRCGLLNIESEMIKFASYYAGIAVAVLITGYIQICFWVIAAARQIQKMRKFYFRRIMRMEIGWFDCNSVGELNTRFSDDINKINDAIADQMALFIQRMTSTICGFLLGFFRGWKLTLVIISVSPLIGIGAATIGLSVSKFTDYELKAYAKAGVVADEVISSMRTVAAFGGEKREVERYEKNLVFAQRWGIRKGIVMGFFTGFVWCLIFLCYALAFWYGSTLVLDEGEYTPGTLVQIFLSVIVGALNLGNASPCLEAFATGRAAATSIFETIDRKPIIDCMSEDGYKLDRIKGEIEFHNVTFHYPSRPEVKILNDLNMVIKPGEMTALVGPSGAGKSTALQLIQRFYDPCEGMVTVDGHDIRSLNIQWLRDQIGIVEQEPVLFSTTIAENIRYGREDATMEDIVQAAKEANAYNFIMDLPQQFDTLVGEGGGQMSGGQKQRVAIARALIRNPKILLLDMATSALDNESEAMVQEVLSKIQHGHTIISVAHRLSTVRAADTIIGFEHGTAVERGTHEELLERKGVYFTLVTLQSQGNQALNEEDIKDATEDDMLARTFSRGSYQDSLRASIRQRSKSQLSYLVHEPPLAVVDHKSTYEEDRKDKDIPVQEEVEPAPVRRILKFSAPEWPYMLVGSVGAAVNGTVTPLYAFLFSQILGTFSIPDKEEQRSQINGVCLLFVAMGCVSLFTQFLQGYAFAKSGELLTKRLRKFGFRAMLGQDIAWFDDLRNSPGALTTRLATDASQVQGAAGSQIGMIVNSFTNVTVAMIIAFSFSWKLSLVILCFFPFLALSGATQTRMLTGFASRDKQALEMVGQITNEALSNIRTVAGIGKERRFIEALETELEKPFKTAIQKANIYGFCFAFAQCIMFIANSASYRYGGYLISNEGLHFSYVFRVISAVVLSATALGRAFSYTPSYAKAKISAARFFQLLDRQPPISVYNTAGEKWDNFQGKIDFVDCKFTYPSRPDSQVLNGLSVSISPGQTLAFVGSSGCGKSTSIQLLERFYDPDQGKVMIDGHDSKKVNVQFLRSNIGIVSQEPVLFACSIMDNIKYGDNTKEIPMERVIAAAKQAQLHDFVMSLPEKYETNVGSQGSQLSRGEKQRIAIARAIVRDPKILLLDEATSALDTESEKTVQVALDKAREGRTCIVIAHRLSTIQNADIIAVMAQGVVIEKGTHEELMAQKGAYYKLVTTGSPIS

[3] = target: ATP-binding cassette sub-family C member 2 (Homo sapiens, UniProt Q92887); assay: Inhibition of human MRP2 overexpressed in Sf9 cell membrane vesicles assessed as uptake of [3H]-estradiol-17beta-D-glucuronide in presence of ATP and GSH measured after 20 mins by membrane vesicle transport assay
ATP-binding cassette sub-family C member 2, sequence (Q92887 whole entry): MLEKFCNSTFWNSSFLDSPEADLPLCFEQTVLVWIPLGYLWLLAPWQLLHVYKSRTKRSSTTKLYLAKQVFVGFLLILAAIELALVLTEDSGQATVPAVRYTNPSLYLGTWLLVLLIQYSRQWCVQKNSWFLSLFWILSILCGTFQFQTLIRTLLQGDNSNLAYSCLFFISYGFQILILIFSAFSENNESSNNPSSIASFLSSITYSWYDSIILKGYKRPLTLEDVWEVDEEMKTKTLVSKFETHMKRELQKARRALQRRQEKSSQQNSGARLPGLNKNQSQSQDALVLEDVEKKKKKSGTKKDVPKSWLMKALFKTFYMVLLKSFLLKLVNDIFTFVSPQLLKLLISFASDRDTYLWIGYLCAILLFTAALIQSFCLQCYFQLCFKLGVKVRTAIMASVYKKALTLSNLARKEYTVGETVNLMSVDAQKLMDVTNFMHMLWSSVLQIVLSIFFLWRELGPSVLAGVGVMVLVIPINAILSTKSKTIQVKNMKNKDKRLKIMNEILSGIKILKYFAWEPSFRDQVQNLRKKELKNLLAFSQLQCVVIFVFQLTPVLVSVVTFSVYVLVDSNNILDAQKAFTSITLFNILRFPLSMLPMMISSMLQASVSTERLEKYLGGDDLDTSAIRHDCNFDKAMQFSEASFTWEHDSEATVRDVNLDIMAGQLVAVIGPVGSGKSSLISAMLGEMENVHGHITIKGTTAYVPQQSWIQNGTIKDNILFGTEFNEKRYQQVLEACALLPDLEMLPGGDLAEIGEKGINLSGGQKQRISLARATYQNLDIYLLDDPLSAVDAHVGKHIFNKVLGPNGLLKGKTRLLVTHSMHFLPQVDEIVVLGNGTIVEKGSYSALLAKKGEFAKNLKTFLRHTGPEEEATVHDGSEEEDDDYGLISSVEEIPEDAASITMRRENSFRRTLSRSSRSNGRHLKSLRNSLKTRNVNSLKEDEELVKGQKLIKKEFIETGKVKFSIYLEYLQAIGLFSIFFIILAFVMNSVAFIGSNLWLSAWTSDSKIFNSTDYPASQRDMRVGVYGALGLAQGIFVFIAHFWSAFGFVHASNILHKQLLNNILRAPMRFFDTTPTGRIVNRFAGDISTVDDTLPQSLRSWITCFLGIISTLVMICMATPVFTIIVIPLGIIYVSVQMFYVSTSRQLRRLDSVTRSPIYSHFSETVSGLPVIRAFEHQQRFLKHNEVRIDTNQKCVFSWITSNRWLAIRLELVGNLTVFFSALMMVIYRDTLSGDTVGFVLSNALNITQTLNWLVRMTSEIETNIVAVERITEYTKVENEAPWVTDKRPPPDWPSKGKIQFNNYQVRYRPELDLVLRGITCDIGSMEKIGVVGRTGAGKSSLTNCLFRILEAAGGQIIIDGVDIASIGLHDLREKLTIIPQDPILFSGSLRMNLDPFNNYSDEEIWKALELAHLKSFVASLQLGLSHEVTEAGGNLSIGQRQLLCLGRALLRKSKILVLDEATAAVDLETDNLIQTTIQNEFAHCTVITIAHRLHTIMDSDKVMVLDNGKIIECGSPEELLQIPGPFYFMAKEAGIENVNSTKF

Row | Compound | IC50 [1] [µM] | IC50 [2] [µM] | IC50 (Bile salt export pump) [µM] | IC50 [3] [µM]
1 | Nc1nc(F)nc2c1ncn2[C@@H]1O[C@H](COP(=O)(O)O)[C@@H](O)[C@@H]1O [FLUDARABINE PHOSPHATE] | > 133 | > 133 | > 133 | > 133
2 | c1ccc2c(c1)OCC(C1=NCCN1)O2 (configuration not stated) [IDAZOXAN] | > 133 | > 133 | > 133 | > 133
3 | CSc1ccc(C(=O)c2[nH]c(=O)[nH]c2C)cc1 [ENOXIMONE] | > 133 | > 133 | > 133 | > 133
4 | O=NN(CCCl)C(=O)NC1CCCCC1 [LOMUSTINE] | > 133 | > 133 | > 133 | > 133
5 | Cc1cc(=O)n(-c2ccccc2)n1C [ANTIPYRINE] | > 133 | > 133 | > 133 | > 133
6 | CN1C(C(=O)Nc2ccccn2)=C(O)c2sccc2S1(=O)=O [TENOXICAM] | > 133 | > 133 | > 133 | > 133
7 | enfuvirtide | 7.5 | > 133 | > 133 | > 133
8 | C[C@@H]1C/C=C/C=C/C=C/C=C/[C@H](O[C@@H]2O[C@H](C)[C@@H](O)[C@H](N)[C@@H]2O)C[C@@H]2O[C@](O)(C[C@@H](O)C[C@H]3O[C@@H]3/C=C/C(=O)O1)C[C@H](O)[C@H]2C(=O)O [NATAMYCIN] | > 133 | > 133 | > 133 | > 133
9 | Nc1nc(O)c2ncn(COC(CO)CO)c2n1 [GANCICLOVIR] | > 133 | > 133 | > 133 | > 133
10 | CC1(C)[C@H](C(=O)O)N2C(=O)C[C@H]2S1(=O)=O [SULBACTAM] | > 133 | > 133 | > 133 | > 133
11 | Cn1nnc2c(C(N)=O)ncn2c1=O [TEMOZOLOMIDE] | > 133 | > 133 | > 133 | > 133
12 | CN(C)c1ccc(O)c2c1C[C@H]1C[C@H]3[C@H](N(C)C)C(O)=C(C(N)=O)C(=O)[C@@]3(O)C(O)=C1C2=O [MINOCYCLINE HYDROCHLORIDE] | > 133 | > 133 | > 133 | > 133
13 | CO[C@H]1/C=C/O[C@@]2(C)Oc3c(C)c(O)c4c(O)c(c5c(nc6cc(C)ccn65)c4c3C2=O)NC(=O)/C(C)=C\C=C\[C@H](C)[C@H](O)[C@@H](C)[C@@H](O)[C@@H](C)[C@H](OC(C)=O)[C@@H]1C [RIFAXIMIN] | 30.2 | 65 | 42 | 15.4
14 | CC1=NS(=O)(=O)c2cc(Cl)ccc2N1 [DIAZOXIDE] | > 133 | > 133 | > 133 | > 133
15 | Nc1c2c(nc3ccccc13)CCCC2 [TACRINE] | 23.7 | > 133 | > 133 | > 133
16 | CN1C(C(=O)Nc2ccccn2)=C(O)c2sc(Cl)cc2S1(=O)=O [LORNOXICAM] | > 133 | > 133 | 7.56 | > 133
17 | C=C(C)[C@H]1Cc2c(ccc3c2O[C@@H]2COc4cc(OC)c(OC)cc4[C@@H]2C3=O)O1 [ROTENONE] | > 133 | > 133 | 8 | > 133
18 | CC(=O)Nc1ccc(/C=N/NC(N)=S)cc1 [AMITHIOZONE] | > 133 | > 133 | > 133 | > 133
19 | COC(=O)[C@@H]1CC2=CC(=O)CC[C@]2(C)[C@@]23O[C@@H]2C[C@@]2(C)[C@@H](CC[C@@]24CCC(=O)O4)[C@H]13 [EPLERENONE] | > 133 | > 133 | > 133 | > 133

Row | Compound | IC50 [1] [µM] | IC50 [2] [µM] | IC50 (Bile salt export pump) [µM] | IC50 [3] [µM]
20 | CC(=O)CC(c1ccccc1)c1c(O)c2ccccc2oc1=O (configuration not stated) [WARFARIN SODIUM] | > 133 | > 133 | > 133 | > 133
21 | NC[C@H]1O[C@H](O[C@H]2[C@H](O)[C@@H](O[C@H]3O[C@H](CO)[C@@H](O)[C@H](N)[C@H]3O)[C@H](N)C[C@@H]2N)[C@H](O)[C@@H](O)[C@@H]1O [KANAMYCIN] | > 133 | > 133 | > 133 | > 133
22 | Cc1cc2c(s1)Nc1ccccc1N=C2N1CCN(C)CC1 [OLANZAPINE] | > 133 | > 133 | > 133 | > 133
23 | Oc1c(I)cc(Cl)c2cccnc12 [CLIOQUINOL] | > 133 | > 133 | > 133 | > 133
24 | CC[C@@H](C(N)=O)N1CCCC1=O | > 133 | > 133 | > 133 | > 133
25 | N=C(N)NC(=O)Cc1c(Cl)cccc1Cl [GUANFACINE] | > 133 | > 133 | > 133 | > 133
26 | Cc1oncc1C(=O)Nc1ccc(C(F)(F)F)cc1 [LEFLUNOMIDE] | > 133 | > 133 | > 133 | > 133
27 | CCCNCC(O)COc1ccccc1C(=O)CCc1ccccc1 (configuration not stated) [PROPAFENONE] | > 133 | > 133 | > 133 | > 133
28 | ClC(Cl)(Cl)Cl [CARBON TETRACHLORIDE] | > 133 | > 133 | > 133 | > 133
29 | CC(C)OC(=O)CCC/C=C\C[C@@H]1[C@@H](/C=C/[C@@H](O)COc2cccc(C(F)(F)F)c2)[C@H](O)C[C@@H]1O [TRAVOPROST] | 74 | > 133 | 43.9 | > 133
30 | Cc1onc(-c2ccccc2)c1-c1ccc(S(N)(=O)=O)cc1 [VALDECOXIB] | > 133 | > 133 | > 133 | > 133
31 | CN(C(=O)c1c(O)c2ccccc2n(C)c1=O)c1ccccc1 [ROQUINIMEX] | > 133 | > 133 | > 133 | > 133
32 | CC[C@@]1(O)C(=O)OCc2c1cc1n(c2=O)Cc2cc3ccccc3nc2-1 [CAMPTOTHECIN] | 7.4 | > 133 | > 133 | > 133
33 | O=C1Nc2ccc(Cl)cc2[C@@](C#CC2CC2)(C(F)(F)F)O1 [EFAVIRENZ] | > 133 | > 133 | > 133 | > 133
34 | COc1c(N2C[C@@H]3CCCN[C@@H]3C2)c(F)cc2c(=O)c(C(=O)O)cn(C3CC3)c12 [MOXIFLOXACIN HYDROCHLORIDE] | > 133 | > 133 | > 133 | > 133
35 | COc1cc2c3cc1Oc1cc(ccc1O)C[C@@H]1c4c(cc(OC)c(O)c4Oc4ccc(cc4)C[C@@H]3N(C)CC2)CC[N+]1(C)C [TUBOCURARINE] | 9.6 | > 133 | > 133 | > 133
36 | N[C@@H](CC(=O)N1CCn2c(nnc2C(F)(F)F)C1)Cc1cc(F)c(F)cc1F [SITAGLIPTIN] | > 133 | > 133 | > 133 | > 133
37 | C=C[C@H]1C[N@@]2CC[C@H]1C[C@@H]2[C@@H](O)c1ccnc2ccc(OC)cc12 [QUINIDINE] | 45.8 | > 133 | > 133 | > 133
38 | COc1ccc(Cc2nccc3cc(OC)c(OC)cc23)cc1OC [PAPAVERINE] | 23.1 | > 133 | > 133 | > 133
